The results in this text go back to US7501383B2, “Substituted [1,2,4]triazolo[1,5-a]pyrimidines and their use for controlling harmful fungi” (BASF Aktiengesellschaft, priority 2004, dated 2009).

Each structure is given as a SMILES string.

Usually melting point stands for the temperature of the solid-liquid transition. `CCCCCCc1nc2nnnc-2c(N)n1C` [I-2, 5-hexyl-6-methyl-7-aminotriazolopyrimidine] gave a melting point of 193 to 194 °C.
